Legend:
NAD in U2OS cells = test: intracellular NAD abundance by LC-MS/MS; type: cell-based; settings: U2OS cells exposed to sub-lethal doxorubicin
Experimental: FIGS. 5A-5C. Active variants of P7C3 compensate NAD exhaustion induced by doxorubicin. (FIG. 5A) U2OS cells were treated with the indicated concentration of P7C3-A20. Cells were harvested and NAD metabolites were measured by LC-MS/MS. Abundance of NAD was normalized relative to total metabolites (Experimental Procedures). The data are represented as the mean±SD of experimental duplicates. […] Cells were grown in 96-well plates and treated with the indicated concentrations of P7C3-A20, P7C3-S243, P7C3-S6 or P7C3-S117 together with 0.5 μM doxorubicin for 45 h. Cellular NAD abundance was determined by NAD/NADH Glo assay kit. […] The activities in both assays are represented by (Sinf−S0)/AC50 in dose response curves of test compounds.
Doxorubicin is a DNA-damaging toxin known to activate the poly ADP-ribose polymerase (PARP) enzyme as a central feature of DNA repair (Pacher et al., 2002) (Munoz-Gamez et al., 2009). […] U2OS cells exposed to sub-lethal levels of doxorubicin were lysed in methanol, cleared by centrifugation and subjected to metabolite analysis by mass spectrometry. These methods allow for the simultaneous, quantitative analysis of hundreds of intracellular metabolites (Tu et al., 2007) (Wang et al., 2009). […] The mass spectrometry methods used to quantitate metabolite levels measured NAD relative to hundreds of other intracellular metabolites. […]

[1] = system: hippocampal neurogenesis (Dentate Gyrus); test: in vivo neurogenesis assay (BrdU+ cells in dentate gyrus); set-up: species or system mice; settings: living mice; vehicle (DMSO) 7.3
How it was run: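 Pools of ten compounds infused into the left ventricle of two adult mice per pool via cannula and mini-pump over one week, aimed at mid-nanomolar levels. Daily BrdU co-injected; brain sections stained for BrdU to count new dentate gyrus cells.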

COc1cccc(NCC(F)Cn2c3ccc(Br)cc3c3cc(Br)ccc32)c1 (centres unmarked) [S10]
NAD level relative to total metabolites (NAD in U2OS cells): dose-dependent replenishment of NAD
Neurogenesis # BrdU+ Cells (X10E06)/mm3 Dentate Gyrus [1]: 19.0 (X10E06)/mm3

Source: patent US9243281B2, “Neuroprotective chemicals and methods for identifying and using same” (Board of Regents of The University of Texas System, priority 2013, dated 2016)
